Patent publication US20070128217A1 (priority 2003, published 2007)

Columns and labels:
[1] = test system: antibodies in sera from SARS patients (sera 1a, 1b, 2, 6, 37, 62, London, SARS-yellow, SARS-green); type: binding, human; set-up: Binding of serum 6 to linear peptides of protein X1 of SARS-CoV Urbani / Binding of serum 37 to linear peptides of protein X1 of SARS-CoV Urbani / Binding of serum 6 to looped/cyclic peptide (PEPSCAN-ELISA) / Binding of serum 37 to looped/cyclic peptide (PEPSCAN-ELISA) / Binding of serum 37 to looped/cyclic peptides of protein X1 of SARS-CoV Urbani / Binding of serum 6 to linear peptides of protein X2 / Binding of serum 37 to linear peptides of protein X2 / Binding of serum 37 to looped/cyclic peptides of protein X2 of SARS-CoV Urbani / Binding of serum 6 to linear peptides of protein M of SARS-CoV Urbani / Binding of serum 37 to linear peptides of protein M of SARS-CoV Urbani / Binding of serum 6 to looped/cyclic peptides of protein M of SARS-CoV Urbani / Binding of serum 37 to looped/cyclic peptides of protein M of SARS-CoV Urbani / Binding of serum 6 to linear peptides of protein X3 of SARS-CoV Urbani / Binding of serum 37 to linear peptides of protein X3 of SARS-CoV Urbani / Binding of serum 37 to looped/cyclic peptides of protein X3 of SARS-CoV Urbani / Binding of serum 6 to linear peptides of protein X4 of SARS-CoV Urbani / Binding of serum 37 to linear peptides of protein X4 of SARS-CoV Urbani / Binding of serum 37 to looped/cyclic peptides of protein X4 of SARS-CoV Urbani / Binding of serum 6 to linear peptides of protein X5 of SARS-CoV Urbani / Binding of serum 37 to linear peptides of protein X5 of SARS-CoV Urbani / Binding of serum 37 to looped/cyclic peptides of protein X5 of SARS-CoV Urbani / Binding of serum 6 to linear peptides of protein N of SARS-CoV Urbani / Binding of serum 37 to linear peptides of protein N of SARS-CoV Urbani / Binding of serum 6 to linear peptide (PEPSCAN-ELISA) / Binding of serum 1a to looped/cyclic peptides of protein N of SARS-CoV Urbani / Binding of serum 1b to looped/cyclic peptides of protein N of SARS-CoV Urbani / Binding of serum 2 to looped/cyclic peptides of protein N of SARS-CoV Urbani / Binding of serum 6 to looped/cyclic peptides of protein N of SARS-CoV Urbani / Binding of serum 37 to looped/cyclic peptides of protein N of SARS-CoV Urbani / Binding of serum 62 to looped/cyclic peptides of protein N of SARS-CoV Urbani / Binding of serum London to looped/cyclic peptides of protein N of SARS-CoV Urbani / Binding of serum SARS-green to looped/cyclic peptides of protein N of SARS-CoV Urbani: unit not given here
[2] = test system: control sera (pooled serum of ten healthy LUMC hospital workers; commercial negative donor pooled serum from the Dutch bloodbank); type: binding, human; set-up: Binding of Control serum LUMC to linear peptides / Binding of Control serum Blood-bank to linear peptides / Binding of Control serum LUMC to looped peptides / Binding of Control Serum Blood-Bank to Looped peptides / Binding of Control serum LUMC to linear peptides of the protein M of SARS-CoV Urbani / Binding of Control serum Blood-bank to linear peptides of the protein M of SARS-CoV Urbani / Binding of Control serum LUMC to looped peptides of the protein M of SARS-CoV Urbani / Binding of Control Serum Blood-Bank to Looped peptides of the protein M of SARS-CoV Urbani: unit not given here
[3] = test system: rabbit serum obtained by immunizing a rabbit with the SARS-CoV strain Frankfurt 1; type: binding; set-up: Binding of a rabbit serum to linear peptides / Binding of a rabbit serum to looped peptides / Rabbit serum linear peptides / Rabbit serum looped peptides / Binding of a rabbit serum to linear peptides of protein N of SARS-CoV Urbani (Rabbit serum linear peptides) / Binding of a rabbit serum to looped/cyclic peptides of protein N of SARS-CoV Urbani (Rabbit serum looped peptides): unit not given here

Sequence: VTIYSHLLLVAAGME
- Binding of serum 1a to linear peptides of protein X1 of SARS-CoV Urbani [1]: 0.8
- Binding of serum 1a to looped/cyclic peptide (PEPSCAN-ELISA) [1]: 0.5
- Binding of serum 1b to linear peptides of protein X1 of SARS-CoV Urbani [1]: 0.7
- Binding of serum 1b to looped/cyclic peptide (PEPSCAN-ELISA) [1]: 0.4
- Binding of serum 2 to linear peptides of protein X1 of SARS-CoV Urbani [1]: 0.5
- Binding of serum 2 to looped/cyclic peptide (PEPSCAN-ELISA) [1]: 0.5
- Binding of serum 6 to linear peptides of protein X1 of SARS-CoV Urbani [1]: 0.4
- Binding of serum 6 to looped/cyclic peptide (PEPSCAN-ELISA) [1]: 0.3
- Binding of serum 37 to linear peptides of protein X1 of SARS-CoV Urbani [1]: 0.6
- Binding of serum 37 to looped/cyclic peptide (PEPSCAN-ELISA) [1]: 0.5
- Binding of serum 62 to linear peptides of protein X1 of SARS-CoV Urbani [1]: 0.6
- Binding of serum 62 to looped/cyclic peptide (PEPSCAN-ELISA) [1]: 0.4
- Binding of serum London to linear peptides of protein X1 of SARS-CoV Urbani [1]: 0.3
- Binding of serum London to looped/cyclic peptide (PEPSCAN-ELISA) [1]: 0.2
- Binding of serum SARS-green to linear peptides of protein X1 of SARS-CoV Urbani [1]: 0.3
- Binding of serum SARS-green to looped/cyclic peptide (PEPSCAN-ELISA) [1]: 0.3
- Binding of serum SARS-yellow to linear peptides of protein X1 of SARS-CoV Urbani [1]: 0.6
- Binding of serum SARS-yellow to looped/cyclic peptide (PEPSCAN-ELISA) [1]: 0.3
- Binding of Control Serum Blood-Bank to Looped peptides [2]: 0.4
- Binding of Control serum Blood-bank to linear peptides [2]: 0.5
- Binding of Control serum LUMC to linear peptides [2]: 0.5
- Binding of Control serum LUMC to looped peptides [2]: 0.6
- Binding of a rabbit serum to linear peptides [3]: 0.1
- Binding of a rabbit serum to looped peptides [3]: 0.5

Sequence: VTRPLMESELVIGAV
- Binding of serum 1a to linear peptides of protein M of SARS-CoV Urbani [1]: 0.8
- Binding of serum 1b to linear peptides of protein M of SARS-CoV Urbani [1]: 0.6
- Binding of serum 2 to linear peptides of protein M of SARS-CoV Urbani [1]: 0.9
- Binding of serum 6 to linear peptides of protein M of SARS-CoV Urbani [1]: 0.2
- Binding of serum 37 to linear peptides of protein M of SARS-CoV Urbani [1]: 1.0
- Binding of serum 62 to linear peptides of protein M of SARS-CoV Urbani [1]: 0.9
- Binding of serum London to linear peptides of protein M of SARS-CoV Urbani [1]: 0.3
- Binding of serum SARS-green to linear peptides of protein M of SARS-CoV Urbani [1]: 0.3
- Binding of serum SARS-yellow to linear peptides of protein M of SARS-CoV Urbani [1]: 0.1
- Recognition of the peptide by sera of SARS-CoV infected individuals, and form (linear, looped/cyclic) in which it is recognized [1]: recognized in looped/cyclic form
- Binding of Control Serum Blood-Bank to Looped peptides of the protein M of SARS-CoV Urbani [2]: 0.9
- Binding of Control serum Blood-bank to linear peptides of the protein M of SARS-CoV Urbani [2]: 0.6
- Binding of Control serum LUMC to linear peptides of the protein M of SARS-CoV Urbani [2]: 0.4
- Binding of Control serum LUMC to looped peptides of the protein M of SARS-CoV Urbani [2]: 1.0
- Rabbit serum linear peptides [3]: 0.4
- Rabbit serum looped peptides [3]: 0.2

Sequence: VVTEGDGISTPKLKE
- Binding of serum 1a to linear peptides of protein X1 of SARS-CoV Urbani [1]: 0.5
- Binding of serum 1a to looped/cyclic peptides of protein X1 of SARS-CoV Urbani [1]: 0.3
- Binding of serum 1b to linear peptides of protein X1 of SARS-CoV Urbani [1]: 0.4
- Binding of serum 1b to looped/cyclic peptides of protein X1 of SARS-CoV Urbani [1]: 0.3
- Binding of serum 2 to linear peptides of protein X1 of SARS-CoV Urbani [1]: 0.3
- Binding of serum 2 to looped/cyclic peptides of protein X1 of SARS-CoV Urbani [1]: 0.1
- Binding of serum 6 to linear peptides of protein X1 of SARS-CoV Urbani [1]: 0.2
- Binding of serum 6 to looped/cyclic peptides of protein X1 of SARS-CoV Urbani [1]: 0.2
- Binding of serum 37 to linear peptides of protein X1 of SARS-CoV Urbani [1]: 0.4
- Binding of serum 37 to looped/cyclic peptides of protein X1 of SARS-CoV Urbani [1]: 0.3
- Binding of serum 62 to linear peptides of protein X1 of SARS-CoV Urbani [1]: 0.3
- Binding of serum 62 to looped/cyclic peptides of protein X1 of SARS-CoV Urbani [1]: 0.3
- Binding of serum London to linear peptides of protein X1 of SARS-CoV Urbani [1]: 0.3
- Binding of serum London to looped/cyclic peptides of protein X1 of SARS-CoV Urbani [1]: 0.2
- Binding of serum SARS-green to linear peptides of protein X1 of SARS-CoV Urbani [1]: 0.1
- Binding of serum SARS-green to looped/cyclic peptides of protein X1 of SARS-CoV Urbani [1]: 0.1
- Binding of serum SARS-yellow to linear peptides of protein X1 of SARS-CoV Urbani [1]: 0.1
- Binding of serum SARS-yellow to looped/cyclic peptides of protein X1 of SARS-CoV Urbani [1]: 0.2
- Binding of Control Serum Blood-Bank to Looped peptides [2]: 0.3
- Binding of Control serum Blood-bank to linear peptides [2]: 0.3
- Binding of Control serum LUMC to linear peptides [2]: 0.2
- Binding of Control serum LUMC to looped peptides [2]: 0.3
- Binding of a rabbit serum to linear peptides [3]: 0.1
- Binding of a rabbit serum to looped peptides [3]: 0.4

Sequence: VYYQLESTQITTDTG
- Binding of serum 1a to linear peptides of protein X1 of SARS-CoV Urbani [1]: 0.6
- Binding of serum 1a to looped/cyclic peptides of protein X1 of SARS-CoV Urbani [1]: 0.4
- Binding of serum 1b to linear peptides of protein X1 of SARS-CoV Urbani [1]: 0.5
- Binding of serum 1b to looped/cyclic peptides of protein X1 of SARS-CoV Urbani [1]: 0.2
- Binding of serum 2 to linear peptides of protein X1 of SARS-CoV Urbani [1]: 0.4
- Binding of serum 2 to looped/cyclic peptides of protein X1 of SARS-CoV Urbani [1]: 0.1
- Binding of serum 6 to linear peptides of protein X1 of SARS-CoV Urbani [1]: 0.4
- Binding of serum 6 to looped/cyclic peptides of protein X1 of SARS-CoV Urbani [1]: 0.1
- Binding of serum 37 to linear peptides of protein X1 of SARS-CoV Urbani [1]: 0.6
- Binding of serum 37 to looped/cyclic peptides of protein X1 of SARS-CoV Urbani [1]: 0.4
- Binding of serum 62 to linear peptides of protein X1 of SARS-CoV Urbani [1]: 0.5
- Binding of serum 62 to looped/cyclic peptides of protein X1 of SARS-CoV Urbani [1]: 0.3
- Binding of serum London to linear peptides of protein X1 of SARS-CoV Urbani [1]: 0.2
- Binding of serum London to looped/cyclic peptides of protein X1 of SARS-CoV Urbani [1]: 0.2
- Binding of serum SARS-green to linear peptides of protein X1 of SARS-CoV Urbani [1]: 0.2
- Binding of serum SARS-green to looped/cyclic peptides of protein X1 of SARS-CoV Urbani [1]: 0.2
- Binding of serum SARS-yellow to linear peptides of protein X1 of SARS-CoV Urbani [1]: 0.3
- Binding of serum SARS-yellow to looped/cyclic peptides of protein X1 of SARS-CoV Urbani [1]: 0.1
- Binding of Control Serum Blood-Bank to Looped peptides [2]: 0.3
- Binding of Control serum Blood-bank to linear peptides [2]: 0.4
- Binding of Control serum LUMC to linear peptides [2]: 0.4
- Binding of Control serum LUMC to looped peptides [2]: 0.3
- Binding of a rabbit serum to linear peptides [3]: 0.1
- Binding of a rabbit serum to looped peptides [3]: 0.5

Sequence: WIMLLQFAYSNRNRF
- Binding of serum 1a to linear peptides of protein M of SARS-CoV Urbani [1]: 0.6
- Binding of serum 1a to looped/cyclic peptides of protein M of SARS-CoV Urbani [1]: 0.7
- Binding of serum 1b to linear peptides of protein M of SARS-CoV Urbani [1]: 0.5
- Binding of serum 1b to looped/cyclic peptides of protein M of SARS-CoV Urbani [1]: 0.6
- Binding of serum 2 to linear peptides of protein M of SARS-CoV Urbani [1]: 0.5
- Binding of serum 2 to looped/cyclic peptides of protein M of SARS-CoV Urbani [1]: 0.4
- Binding of serum 6 to linear peptides of protein M of SARS-CoV Urbani [1]: 0.3
- Binding of serum 6 to looped/cyclic peptides of protein M of SARS-CoV Urbani [1]: 0.8
- Binding of serum 37 to linear peptides of protein M of SARS-CoV Urbani [1]: 0.7
- Binding of serum 37 to looped/cyclic peptides of protein M of SARS-CoV Urbani [1]: 0.4
- Binding of serum 62 to linear peptides of protein M of SARS-CoV Urbani [1]: 0.7
- Binding of serum 62 to looped/cyclic peptides of protein M of SARS-CoV Urbani [1]: 0.6
- Binding of serum London to linear peptides of protein M of SARS-CoV Urbani [1]: 0.3
- Binding of serum London to looped/cyclic peptides of protein M of SARS-CoV Urbani [1]: 0.2
- Binding of serum SARS-green to linear peptides of protein M of SARS-CoV Urbani [1]: 0.3
- Binding of serum SARS-green to looped/cyclic peptides of protein M of SARS-CoV Urbani [1]: 0.2
- Binding of serum SARS-yellow to linear peptides of protein M of SARS-CoV Urbani [1]: 0.1
- Binding of serum SARS-yellow to looped/cyclic peptides of protein M of SARS-CoV Urbani [1]: 0.3
- Binding of Control Serum Blood-Bank to Looped peptides of the protein M of SARS-CoV Urbani [2]: 0.7
- Binding of Control serum Blood-bank to linear peptides of the protein M of SARS-CoV Urbani [2]: 0.7
- Binding of Control serum LUMC to linear peptides of the protein M of SARS-CoV Urbani [2]: 0.3
- Binding of Control serum LUMC to looped peptides of the protein M of SARS-CoV Urbani [2]: 0.7
- Rabbit serum linear peptides [3]: 0.8
- Rabbit serum looped peptides [3]: 0.3
